Experimental data taken from paper PMC10083169, “A cationic motif upstream Engrailed2 homeodomain controls cell internalization through selective interaction with heparan sulfates” (Nature Communications, 2023).

Legend:
ExtHD = molecular target: T1, ExtHD (Gallus gallus, UniProt Q05917); assay: ITC, titration with POPG LUVs; type: binding; details: read-out: Kd^apparent
T1 construct: gene EN2; homeodomain plus 17-residue basic N-terminal extension (183-259); E. coli SE1, His6-Cherry fusion removed by PreScission, GPAS left at N-terminus (GPCAS with biotin-PEG2-maleimide for biotinylated form)
T1 sequence (Q05917 183-259): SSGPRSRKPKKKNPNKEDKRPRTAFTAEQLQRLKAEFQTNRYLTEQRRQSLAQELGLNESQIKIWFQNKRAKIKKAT
Text: ITC, titration with POPG LUVs on ExtHD

HD = molecular target: T2, HD (Gallus gallus, UniProt Q05917); assay: ITC, titration with POPG LUVs; type: binding; details: read-out: Kd^apparent
T2 construct: gene EN2; homeodomain alone (200-259); E. coli SE1, His6-Cherry fusion removed by PreScission, GPAS left at N-terminus
T2 sequence (Q05917 200-259): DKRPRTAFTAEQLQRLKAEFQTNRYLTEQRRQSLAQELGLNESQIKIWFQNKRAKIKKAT
Text: ITC, titration with POPG LUVs on HD

SMILES: CCCCCCCC/C=C\CCCCCCCC(=O)O[C@H](COC(=O)CCCCCCCCCCCCCCC)COP(=O)(O)OCC(O)CO (mixture of isomers) [POPG, 1-palmitoyl-2-oleoyl-sn-glycero-3-phospho-(1’-rac-glycerol)]
- Kd (ExtHD): 6.8 ± 2.3 µM
- Kd (HD): 7.5 ± 2.5 µM
